This note sets out measurements from PubChem BioAssay AID330 (DTP/NCI, 2004).

The test relates to P388 leukemia ip, CD2F1 mice, survival T/C. Put plainly: NCI In Vivo Anticancer Drug Screen. Data for tumor model P388 Leukemia (intraperitoneal) in CD2F1 (CDF1) mice. The note with it: endpoint: median survival time, higher = longer survival. Put shortly:
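Mice carrying the transplanted tumor received test compound or vehicle. Survival was recorded in each group, and the value is the treated-group measurement divided by that of the vehicle-treated control group.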

Setting [1] is: dose: 50.0 mg/kg/injection, schedule: Q01DX009 (ip), vehicle: saline.
Setting [2] is: dose: 100.0 mg/kg/injection, schedule: Q01DX009 (ip), vehicle: saline.
Setting [3] is: dose: 200.0 mg/kg/injection, schedule: Q01DX009 (ip), vehicle: saline.
The mark [4] stands for this setting: dose: 12.5 mg/kg/injection, schedule: Q01DX009 (ip), vehicle: saline with Tween-80.
Where [5] appears, read: dose: 25.0 mg/kg/injection, schedule: Q01DX009 (ip), vehicle: saline with Tween-80.
The mark [6] stands for this setting: dose: 50.0 mg/kg/injection, schedule: Q01DX009 (ip), vehicle: saline with Tween-80.
Where [7] appears, read: dose: 25.0 mg/kg/injection, schedule: Q01DX009 (ip), vehicle: saline.
[8] abbreviates: dose: 12.5 mg/kg/injection, schedule: Q01DX009 (ip), vehicle: Klucel (hydroxypropylcellulose) (HPC).
The mark [9] stands for this setting: dose: 100.0 mg/kg/injection, schedule: Q04DX003 (ip), vehicle: Klucel (hydroxypropylcellulose) (HPC).
Where [10] appears, read: dose: 60.0 mg/kg/injection, schedule: Q01DX005 (ip), vehicle: saline with Tween-80.
Setting [11] is: dose: 120.0 mg/kg/injection, schedule: Q01DX005 (ip), vehicle: saline with Tween-80.
[12] abbreviates: dose: 240.0 mg/kg/injection, schedule: Q01DX005 (ip), vehicle: saline with Tween-80.
Where [13] appears, read: dose: 100.0 mg/kg/injection, schedule: Q04DX003 (ip), vehicle: suspension in saline.

Where “and” joins values, the source holds several entries; their conditions need not be identical. Identical values can stand only once. Inconclusive results and toxic doses are left out.

With `CCOC1CN(C(=O)OC)N1C(=O)OC` (stereo not drawn), the T/C is 100 % of control under setting [1], 107 % of control under setting [2] and 105 % of control under setting [3].

For the compound `O=C(O)C(Cc1ccc(N(CCCl)CCCl)cc1)C(=O)O`, the T/C is, setting by setting: under setting [4], 161 % of control; under setting [5], 171 % of control; under setting [6], 189 % of control and 213 % of control.

On to `CCCC(=O)Nc1ncnc2c1ncn2C1OC2COP(=O)(O)OC2C1OC(=O)CCC` (stereo not drawn), for which the T/C is, setting by setting: (dose: 3.13 mg/kg/injection, schedule: Q03HX012 (ip), vehicle: saline) 114 % of control; (dose: 6.25 mg/kg/injection, schedule: Q03HX012 (ip), vehicle: saline) 112 % of control; (dose: 12.5 mg/kg/injection, schedule: Q03HX012 (ip), vehicle: saline) 112 % of control; under setting [7], 96 % of control; (dose: 25.0 mg/kg/injection, schedule: Q03HX012 (ip), vehicle: saline) 112 % of control; under setting [1], 96 % of control. Besides, the T/C reads like this: (dose: 50.0 mg/kg/injection, schedule: Q03HX012 (ip), vehicle: saline) 116 % of control; under setting [2], 96 % of control; (dose: 100.0 mg/kg/injection, schedule: Q03HX012 (ip), vehicle: saline) 108 % of control; under setting [3], 104 % of control; (dose: 400.0 mg/kg/injection, schedule: Q01DX009 (ip), vehicle: saline) 109 % of control.

`COc1ccc2cc3[n+](cc2c1OC)CCc1cc2c(cc1-3)OCO2`: the T/C is 99 % of control and 110 % of control (dose: 1.25 mg/kg/injection, schedule: Q01DX009 (ip), vehicle: water); 105 % of control (dose: 2.5 mg/kg/injection, schedule: Q01DX009 (ip), vehicle: water); 95 % of control (dose: 3.13 mg/kg/injection, schedule: Q01DX009 (ip), vehicle: Klucel (hydroxypropylcellulose) (HPC)); 110 % of control and 119 % of control (dose: 5.0 mg/kg/injection, schedule: Q01DX009 (ip), vehicle: water); 107 % of control (dose: 6.25 mg/kg/injection, schedule: Q01DX009 (ip), vehicle: Klucel (hydroxypropylcellulose) (HPC)); 110 % of control (dose: 10.0 mg/kg/injection, schedule: Q01DX009 (ip), vehicle: water). Moreover, the T/C runs as follows: under setting [8], 109 % of control; (dose: 20.0 mg/kg/injection, schedule: Q01DX009 (ip), vehicle: water) 119 % of control.

`Cc1nn(C(=O)c2ccncc2)c(C)c1N=Nc1ccccc1Cl`: the T/C reads like this: under setting [9], 96 % of control; (dose: 200.0 mg/kg/injection, schedule: Q04DX003 (ip), vehicle: Klucel (hydroxypropylcellulose) (HPC)) 95 % of control; (dose: 400.0 mg/kg/injection, schedule: Q04DX003 (ip), vehicle: Klucel (hydroxypropylcellulose) (HPC)) 97 % of control.

Take `CC(=O)OCc1ccc(O)c(C=O)c1`: the T/C (dose: 12.5 mg/kg/injection, schedule: Q01DX005 (ip), vehicle: saline with Tween-80) is 118 % of control and the T/C (dose: 50.0 mg/kg/injection, schedule: Q01DX005 (ip), vehicle: saline with Tween-80) is 113 % of control.

Take `NNCCO`: the T/C (dose: 3.12 mg/kg/injection, schedule: Q01DX009 (ip), vehicle: saline with Tween-80) is 108 % of control; the T/C (dose: 6.25 mg/kg/injection, schedule: Q01DX009 (ip), vehicle: saline with Tween-80) is 99 % of control and 100 % of control; the T/C under setting [4] was 99 % of control and 103 % of control; the T/C under setting [5] is 100 % of control and 104 % of control; the T/C under setting [6] was 100 % of control.

Regarding `O=c1c2c(c(=O)c(=O)c1=O)Nc1ccccc1N2`, the T/C runs as follows: under setting [10], 100 % of control; under setting [11], 101 % of control; under setting [12], 107 % of control.

Regarding `O=S(=O)(c1ccccc1)C(SC(=S)Sc1ccccc1)Sc1ccccc1` (stereo not drawn), the T/C was 104 % of control (dose: 12.5 mg/kg/injection, schedule: Q01DX009 (ip), vehicle: saline); 107 % of control under setting [7]; 114 % of control under setting [6]; 96 % of control under setting [1].

Consider `O=C1NC2CCCC1C(c1ccccc1)NC2c1ccccc1` (stereo not drawn), for which the T/C runs as follows: under setting [13], 98 % of control; (dose: 200.0 mg/kg/injection, schedule: Q04DX003 (ip), vehicle: suspension in saline) 99 % of control; (dose: 400.0 mg/kg/injection, schedule: Q04DX003 (ip), vehicle: suspension in saline) 100 % of control.

Regarding `c1ccc(-c2nsc3ccccc23)cc1`, the T/C (dose: 50.0 mg/kg/injection, schedule: Q01DX005 (ip), vehicle: Klucel (hydroxypropylcellulose) (HPC)) was 99 % of control; the T/C (dose: 100.0 mg/kg/injection, schedule: Q01DX005 (ip), vehicle: Klucel (hydroxypropylcellulose) (HPC)) was 106 % of control; the T/C (dose: 200.0 mg/kg/injection, schedule: Q01DX005 (ip), vehicle: Klucel (hydroxypropylcellulose) (HPC)) was 101 % of control.

With `CC1(C)OC(C(F)(F)F)(C(F)(F)F)c2cc(C(C)(C)C)ccc2S1`, the T/C was 98 % of control under setting [10], 98 % of control under setting [11] and 102 % of control under setting [12].

As to `N=C(N)c1ccc(/C=C/c2cc3cc(C(=N)N)ccc3o2)cc1`, the T/C reads like this: (dose: 12.5 mg/kg/injection, schedule: Q04DX003 (ip), vehicle: suspension in saline) 112 % of control; (dose: 25.0 mg/kg/injection, schedule: Q04DX003 (ip), vehicle: suspension in saline) 118 % of control; (dose: 50.0 mg/kg/injection, schedule: Q04DX003 (ip), vehicle: suspension in saline) 120 % of control; under setting [13], 178 % of control.

In the case of `COc1ccccc1C1OC2=C(Nc3ccc([N+](=O)[O-])cc3N2)C1=O` (stereo not drawn), the T/C reads like this: (dose: 30.0 mg/kg/injection, schedule: Q01DX005 (ip), vehicle: Klucel (hydroxypropylcellulose) (HPC)) 93 % of control; (dose: 60.0 mg/kg/injection, schedule: Q01DX005 (ip), vehicle: Klucel (hydroxypropylcellulose) (HPC)) 92 % of control; (dose: 120.0 mg/kg/injection, schedule: Q01DX005 (ip), vehicle: Klucel (hydroxypropylcellulose) (HPC)) 92 % of control and 96 % of control.

In the case of `Cc1cc(NCCCCCCCCNc2cc(C)nc3cc([N+](=O)[O-])ccc23)c2ccc([N+](=O)[O-])cc2n1`, the T/C runs as follows: (dose: 12.5 mg/kg/injection, schedule: Q01DX009 (ip), vehicle: water) 110 % of control; (dose: 25.0 mg/kg/injection, schedule: Q01DX009 (ip), vehicle: water) 101 % of control.

With `Cc1ccc(S(=O)(=O)NC(=O)NC(=S)c2cccc3ccccc23)cc1`, the T/C is, setting by setting: (dose: 100.0 mg/kg/injection, schedule: Q01DX001 (ip), vehicle: saline with Tween-80) 101 % of control; (dose: 200.0 mg/kg/injection, schedule: Q01DX001 (ip), vehicle: saline with Tween-80) 99 % of control; (dose: 400.0 mg/kg/injection, schedule: Q01DX001 (ip), vehicle: saline with Tween-80) 102 % of control.

As to `O=C(c1cc(Cl)c(Cl)c([N+](=O)[O-])c1Cl)C(Cl)Cl`, the T/C reads like this: (dose: 25.0 mg/kg/injection, schedule: Q04DX003 (ip), vehicle: Klucel (hydroxypropylcellulose) (HPC)) 104 % of control; (dose: 50.0 mg/kg/injection, schedule: Q04DX003 (ip), vehicle: Klucel (hydroxypropylcellulose) (HPC)) 99 % of control; under setting [9], 103 % of control.

Regarding `CN=C(N)N/N=C(\C)c1ccc2sc3ccccc3c2c1`, the T/C runs as follows: (dose: 25.0 mg/kg/injection, schedule: Q04DX002 (ip), vehicle: saline with Tween-80) 104 % of control; (dose: 50.0 mg/kg/injection, schedule: Q04DX002 (ip), vehicle: saline with Tween-80) 106 % of control; (dose: 100.0 mg/kg/injection, schedule: Q04DX002 (ip), vehicle: saline with Tween-80) 107 % of control.

As to `O=C1C2C3C=CC(C3)C2C(=O)N1CNc1ccc2nc(SC3C=CCCC3)sc2c1` (stereo not drawn), the T/C under setting [8] was 106 % of control; the T/C (dose: 25.0 mg/kg/injection, schedule: Q01DX009 (ip), vehicle: Klucel (hydroxypropylcellulose) (HPC)) is 101 % of control; the T/C (dose: 50.0 mg/kg/injection, schedule: Q01DX009 (ip), vehicle: Klucel (hydroxypropylcellulose) (HPC)) was 90 % of control and 98 % of control; the T/C (dose: 200.0 mg/kg/injection, schedule: Q01DX009 (ip), vehicle: Klucel (hydroxypropylcellulose) (HPC)) was 91 % of control.
